Among the data in patent US20220411471A1, “CELL-PERMEABLE CYCLIC PEPTIDES AND USES THEREOF” (Unnatural Products Inc., priority 2019, published 2022) are IC50 values, retold here.

Non-standard residues stand in square brackets, D forms with d. Residues, ends and D or L forms follow the SMILES beside them. Phe(4-Cl) = N[C@@H](Cc1ccc(Cl)cc1)C(=O)O; Phe(3-F) = N[C@@H](Cc1cccc(F)c1)C(=O)O; Phe(4-F) = N[C@@H](Cc1ccc(F)cc1)C(=O)O; 3Pal = N[C@@H](Cc1cccnc1)C(=O)O; 2Thi = N[C@@H](Cc1cccs1)C(=O)O; NMeL = CN[C@@H](CC(C)C)C(=O)O; dNMeV = CN[C@@H](C(=O)O)C(C)C; Tle = CC(C)(C)[C@H](N)C(=O)O; dPip = O=C(O)[C@H]1CCCCN1; NMeA = CN[C@@H](C)C(=O)O; Nme = COCCNCC(=O)O

In the assay the target is T1, Human MDM2 (HDM2) 1-116 (Homo sapiens, UniProt Q00987).
T1 construct: Human MDM2 (HDM2) 1-116
T1 sequence (Q00987 1-116): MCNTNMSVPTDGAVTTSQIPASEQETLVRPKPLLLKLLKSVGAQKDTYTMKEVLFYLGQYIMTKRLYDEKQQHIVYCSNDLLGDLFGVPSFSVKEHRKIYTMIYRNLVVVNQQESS
Nature of the assay: Fluorescence polarization assay, MDM2/p53 (Table 3). The class given is binding. On the procedure: (§1) Human MDM2 (HDM2) 1-116 (20 μL) and FITC-labeled p53 (18-26), 50 nM and 10 nM respectively in 10 mM Tris, 50 mM NaCl, 0.01% Tween20, and 1 mM DTT at pH 7.4 were dispensed into an opaque, black, 384 well plate. Compounds dissolved in DMSO were pin transferred (˜200 nL) to the 384 well plate containing the MDM2/p53 solution. After incubation for 10 minutes, the fluorescence polarization was read on a Molecular Devices SpectraMax plate reader equipped with a Fluorescein FP cartridge. In addition to probe alone (positive control) and probe/MDM2 (negative control), a titration of linear p53(18-26) was included on every plate as an additional control. IC50 values were fit using either Prism or Collaborative Drug Discovery.
as §1, with “and FAM-labeled RFMDYWEGL-NH2,” for “and FITC-labeled p53 (18-26),”, “NaCl, 0.010%” for “NaCl, 0.01%”, “transferred (˜100-200” for “transferred (˜200”, “for 60” for “for 10”
Background: In fluorescence polarisation assays a small probe gives low polarisation when free and higher when bound to something large.

The term IC50 denotes the concentration at which inhibition is half-maximal. A low value points to inhibition by little substance. As to `COCCN1CC(=O)N[C@@H](Cc2ccc(Cl)cc2)C(=O)N2CCCC[C@@H]2C(=O)N2CCC[C@H]2C(=O)N[C@@H](Cc2ccccc2)C(=O)N[C@@H](C(C)(C)C)C(=O)N[C@@H](Cc2cccnc2)C(=O)N2CCC[C@@H]2C(=O)N(C)[C@@H](C)C(=O)N[C@@H](Cc2ccc(F)cc2)C1=O` [Compound 18, COCCN1CC(=O)N[C@@H](Cc2ccc(Cl)cc2)C(=O)N2CCCC[C@@H]2C(=O)N2CCC[C@H]2C(=O)N[C@@H](Cc2ccccc2)C(=O)N[C@H](C(=O)N[C@@H](Cc2cccnc2)C(=O)N2CCC[C@@H]2C(=O)N(C)[C@@H](C)C(=O)N[C@@H](Cc2ccc(F)cc2)C1=O)C(C)(C)C] (cyclo([3Pal][dP][NMeA][Phe(4-F)][Nme][Phe(4-Cl)][dPip]PF[Tle])), the IC50 is < 1000 nM.

Consider `COCCN1CC(=O)N[C@@H](Cc2ccc(Cl)cc2)C(=O)N2CCCC[C@@H]2C(=O)N2CCC[C@H]2C(=O)N[C@@H](Cc2cccs2)C(=O)N[C@@H](C(C)(C)C)C(=O)N[C@@H](Cc2cccnc2)C(=O)N2CCC[C@@H]2C(=O)N(C)[C@@H](C)C(=O)N[C@@H](Cc2ccc(F)cc2)C1=O` [Compound 25, COCCN1CC(=O)N[C@@H](Cc2ccc(Cl)cc2)C(=O)N2CCCC[C@@H]2C(=O)N2CCC[C@H]2C(=O)N[C@@H](Cc2cccs2)C(=O)N[C@H](C(=O)N[C@@H](Cc2cccnc2)C(=O)N2CCC[C@@H]2C(=O)N(C)[C@@H](C)C(=O)N[C@@H](Cc2ccc(F)cc2)C1=O)C(C)(C)C] (cyclo([2Thi][Tle][3Pal][dP][NMeA][Phe(4-F)][Nme][Phe(4-Cl)][dPip]P)), for which the IC50 was < 1000 nM.

For the molecule `COCCN1CC(=O)N(C)[C@@H](C)C(=O)N[C@@H](Cc2ccc(F)cc2)C(=O)N[C@@H](C(C)(C)C)C(=O)N[C@@H](Cc2ccc(Cl)cc2)C(=O)N2CCCC[C@@H]2C(=O)N2CCC[C@H]2C(=O)N[C@@H](Cc2ccccc2)C(=O)N[C@@H](C(C)(C)C)C(=O)N[C@@H](Cc2cccnc2)C1=O` [Compound 29, COCCN1CC(=O)N(C)[C@@H](C)C(=O)N[C@@H](Cc2ccc(F)cc2)C(=O)N[C@H](C(=O)N[C@@H](Cc2ccc(Cl)cc2)C(=O)N2CCCC[C@@H]2C(=O)N2CCC[C@H]2C(=O)N[C@@H](Cc2ccccc2)C(=O)N[C@H](C(=O)N[C@@H](Cc2cccnc2)C1=O)C(C)(C)C)C(C)(C)C] (cyclo([3Pal][Nme][NMeA][Phe(4-F)][Tle][Phe(4-Cl)][dPip]PF[Tle])), the IC50 is < 1000 nM. For `COCCN1CC(=O)N(C)[C@@H](C)C(=O)N[C@@H](Cc2ccc(F)cc2)C(=O)N(C)[C@@H](C)C(=O)N[C@@H](Cc2ccc(Cl)cc2)C(=O)N(C)[C@H](C(C)C)C(=O)N2CCC[C@H]2C(=O)N[C@@H](Cc2ccccc2)C(=O)N[C@@H](C(C)(C)C)C(=O)N[C@@H](Cc2cccc(F)c2)C1=O` [Compound 24, COCCN1CC(=O)N(C)[C@@H](C)C(=O)N[C@@H](Cc2ccc(F)cc2)C(=O)N(C)[C@@H](C)C(=O)N[C@@H](Cc2ccc(Cl)cc2)C(=O)N(C)[C@H](C(C)C)C(=O)N2CCC[C@H]2C(=O)N[C@@H](Cc2ccccc2)C(=O)N[C@H](C(=O)N[C@@H](Cc2cccc(F)c2)C1=O)C(C)(C)C] (cyclo(F[Tle][Phe(3-F)][Nme][NMeA][Phe(4-F)][NMeA][Phe(4-Cl)][dNMeV]P)), the IC50 was 1000 to 2500 nM. As for `CC(C)C[C@H]1C(=O)N[C@@H](CC(=O)O)C(=O)N[C@@H](Cc2ccc(F)cc2)C(=O)N[C@@H](CCC(=O)O)C(=O)N[C@@H](Cc2ccc(Cl)cc2)C(=O)N2CCC[C@@H]2C(=O)N2CCC[C@H]2C(=O)N[C@@H](Cc2ccccc2)C(=O)N[C@@H](CCC(=O)O)C(=O)N[C@@H](Cc2c[nH]c3ccccc23)C(=O)N1C` [Compound 4, [H]OC(=O)CC[C@@H]1NC(=O)[C@H](Cc2ccccc2)NC(=O)[C@@H]2CCCN2C(=O)[C@H]2CCCN2C(=O)[C@H](Cc2ccc(Cl)cc2)NC(=O)[C@H](CCC(=O)O[H])NC(=O)[C@H](Cc2ccc(F)cc2)NC(=O)[C@H](CC(=O)O[H])NC(=O)[C@H](CC(C)C)N(C)C(=O)[C@H](Cc2cn([H])c3ccccc23)NC1=O] (cyclo(FEW[NMeL]D[Phe(4-F)]E[Phe(4-Cl)][dP]P)), the figure is < 1000 nM; as for `C[C@H]1C(=O)N[C@@H](Cc2ccc(Cl)cc2)C(=O)N2CCCC[C@@H]2C(=O)N2CCC[C@H]2C(=O)N[C@@H](Cc2ccc(O)cc2)C(=O)N[C@@H](CCC(=O)O)C(=O)N[C@@H](Cc2cccnc2)C(=O)N2CCC[C@@H]2C(=O)N(C)[C@@H](C)C(=O)N[C@@H](Cc2ccc(F)cc2)C(=O)N1C` [Compound 15, [H]OC(=O)CC[C@@H]1NC(=O)[C@H](Cc2ccc(O[H])cc2)NC(=O)[C@@H]2CCCN2C(=O)[C@H]2CCCCN2C(=O)[C@H](Cc2ccc(Cl)cc2)NC(=O)[C@H](C)N(C)C(=O)[C@H](Cc2ccc(F)cc2)NC(=O)[C@H](C)N(C)C(=O)[C@H]2CCCN2C(=O)[C@H](Cc2cccnc2)NC1=O] (cyclo([3Pal][dP][NMeA][Phe(4-F)][NMeA][Phe(4-Cl)][dPip]PYE)), 1000 to 2500 nM. `C[C@H]1C(=O)N[C@@H](Cc2ccc(Cl)cc2)C(=O)N2CCCC[C@@H]2C(=O)N2CCC[C@H]2C(=O)N[C@@H](Cc2ccccc2)C(=O)N[C@@H](C(C)(C)C)C(=O)N[C@@H](Cc2cccnc2)C(=O)N2CCCC[C@@H]2C(=O)N(C)[C@@H](C)C(=O)N[C@@H](Cc2ccc(F)cc2)C(=O)N1C` [Compound 28, C[C@@H]1N(C)C(=O)[C@H]2CCCCN2C(=O)[C@H](Cc2cccnc2)NC(=O)[C@@H](NC(=O)[C@H](Cc2ccccc2)NC(=O)[C@@H]2CCCN2C(=O)[C@H]2CCCCN2C(=O)[C@H](Cc2ccc(Cl)cc2)NC(=O)[C@H](C)N(C)C(=O)[C@H](Cc2ccc(F)cc2)NC1=O)C(C)(C)C] (cyclo([3Pal][dPip][NMeA][Phe(4-F)][NMeA][Phe(4-Cl)][dPip]PF[Tle])) showed a 50% inhibitory concentration (IC50) of 1000 to 2500 nM. As for `CC(C)C[C@H]1C(=O)N[C@@H](CC(=O)O)C(=O)N[C@@H](Cc2c[nH]c3ccccc23)C(=O)N[C@@H](CCC(=O)O)C(=O)N[C@@H](Cc2ccccc2)C(=O)N2CCC[C@@H]2C(=O)N2CCC[C@H]2C(=O)N[C@@H](Cc2ccccc2)C(=O)N[C@@H](CCC(=O)O)C(=O)N[C@@H](Cc2c[nH]c3ccccc23)C(=O)N1C` [Compound 3, [H]OC(=O)CC[C@@H]1NC(=O)[C@H](Cc2ccccc2)NC(=O)[C@@H]2CCCN2C(=O)[C@H]2CCCN2C(=O)[C@H](Cc2ccccc2)NC(=O)[C@H](CCC(=O)O[H])NC(=O)[C@H](Cc2cn([H])c3ccccc23)NC(=O)[C@H](CC(=O)O[H])NC(=O)[C@H](CC(C)C)N(C)C(=O)[C@H](Cc2cn([H])c3ccccc23)NC1=O] (cyclo(FEW[NMeL]DWEF[dP]P)), the figure is < 1000 nM.

The molecule `COCCN1CC(=O)N(C)[C@@H](C)C(=O)N[C@@H](Cc2ccc(F)cc2)C(=O)N(C)[C@@H](C)C(=O)N[C@@H](Cc2ccc(Cl)cc2)C(=O)N2CCCC[C@@H]2C(=O)N2CCC[C@H]2C(=O)N[C@@H](Cc2ccccc2)C(=O)N[C@@H](C(C)(C)C)C(=O)N[C@@H](Cc2cccnc2)C1=O` [Compound 21, COCCN1CC(=O)N(C)[C@@H](C)C(=O)N[C@@H](Cc2ccc(F)cc2)C(=O)N(C)[C@@H](C)C(=O)N[C@@H](Cc2ccc(Cl)cc2)C(=O)N2CCCC[C@@H]2C(=O)N2CCC[C@H]2C(=O)N[C@@H](Cc2ccccc2)C(=O)N[C@H](C(=O)N[C@@H](Cc2cccnc2)C1=O)C(C)(C)C] (cyclo([3Pal][Nme][NMeA][Phe(4-F)][NMeA][Phe(4-Cl)][dPip]PF[Tle])) displayed an IC50 of 1000 to 2500 nM.

For `COCCN1CC(=O)N(C)[C@@H](C)C(=O)N[C@@H](Cc2ccc(F)cc2)C(=O)N(C)[C@@H](C)C(=O)N[C@@H](Cc2ccc(Cl)cc2)C(=O)N2CCCC[C@@H]2C(=O)N2CCC[C@H]2C(=O)N[C@@H](Cc2ccccc2)C(=O)N[C@@H](C(C)(C)C)C(=O)N[C@@H](Cc2ccc(O)cc2)C1=O` [Compound 30, [H]Oc1ccc(C[C@@H]2NC(=O)[C@@H](NC(=O)[C@H](Cc3ccccc3)NC(=O)[C@@H]3CCCN3C(=O)[C@H]3CCCCN3C(=O)[C@H](Cc3ccc(Cl)cc3)NC(=O)[C@H](C)N(C)C(=O)[C@H](Cc3ccc(F)cc3)NC(=O)[C@H](C)N(C)C(=O)CN(CCOC)C2=O)C(C)(C)C)cc1] (cyclo(F[Tle]Y[Nme][NMeA][Phe(4-F)][NMeA][Phe(4-Cl)][dPip]P)), the IC50 was in the range of 2500 to 5000 nM. The result for `CC(C)C[C@@H]1NC(=O)[C@H](Cc2c[nH]c3ccccc23)NC(=O)[C@H](CCC(=O)O)NC(=O)[C@H](Cc2ccccc2)NC(=O)[C@@H]2CCCN2C(=O)[C@H]2CCCN2C(=O)[C@H](Cc2ccccc2)NC(=O)[C@H](CCC(=O)O)NC(=O)[C@H](Cc2c[nH]c3ccccc23)NC(=O)[C@H](CC(=O)O)NC1=O` [Compound 2, [H]OC(=O)CC[C@@H]1NC(=O)[C@H](Cc2cn([H])c3ccccc23)NC(=O)[C@H](CC(=O)O[H])NC(=O)[C@H](CC(C)C)NC(=O)[C@H](Cc2cn([H])c3ccccc23)NC(=O)[C@H](CCC(=O)O[H])NC(=O)[C@H](Cc2ccccc2)NC(=O)[C@@H]2CCCN2C(=O)[C@H]2CCCN2C(=O)[C@H](Cc2ccccc2)NC1=O] (cyclo(FEWLDWEF[dP]P)) reads 1000 to 2500 nM.
